Reference: patent US5597703A, “Methods for determing cholesterol oxidase activity in an aqueous test sample, determining whether a test compound is capable of inhibiting cholesterol oxidase activity and determining the degree of cholesterol oxidase inhibitory activity” (priority 1994, dated 1997)

Tested on: cholesterol oxidase
Test: estimating the toxicity of chemical compounds by presence or absence of sterol domain fade-out in a monolayer on cholesterol oxidase aqueous solution
Format: biochemical
Details: cholesterol oxidase 5×10^-3 unit/ml
[1] = 1 mM test compound, monolayer DMPC 0.68 mM / cholesterol 0.3 mM / NBD-PC 0.02 mM

Experimental: In the first embodiment of the method for estimating the toxicity of chemical compounds, there is used cholesterol oxidase HEPES buffer solution of 5×10^-3 unit/ml as the cholesterol oxidase aqueous solution 12. Herein, HEPES means N-2-hydroxyethylpiperazine-N'-2-ethane sulfonic acid which has 0.1 of ionic strength and 7.45 of pH. […] As the monolayer spread solution 13, there is used a solution consisting of 0.68 mM of DMPC (L-α-dimyristoylphosphatidylcholine), 0.3 mM of cholesterol and 0.02 mM of fluorescent dye labeled phospholipid NBD-PC (1-palmitoyl-2-[12-[(7-nitro-2-1,3-benzoxadiazol-4-yl) amino]dodecanoyl]phosphatidylcholine) chloroform. The monolayer spread solution 13 is dropped in the amount of 9.4 ml thereof onto a surface (42.6 cm^2) of the cholesterol oxidase aqueous solution 12 in which 1 mM of zinc chloride is dissolved, and then there is immediately formed a monolayer on the surface.
In the second embodiment, there is used cholesterol oxidase HEPES buffer solution of 5×10^-3 unit/ml as the cholesterol oxidase aqueous solution 12. In the HEPES solution is dissolved 1 mM of calcium chloride the toxicity of which is to be estimated. As the monolayer spread solution 13, there is used a solution consisting of 0.68 mM of DMPC (L-α-dimyristoylphosphatidylcholine), 0.3 mM of cholesterol and 0.02 mM of fluorescent dye labeled phospholipid NBD-PC (1-palmitoyl-2-[12-[(7-nitro-2-1,3-benzoxadiazol-4-yl)amino]dodecanoyl]phosphatyzircoline) chloroform. Similarly to the first embodiment, the monolayer spread solution 13 is dropped onto a surface of the cholesterol oxidase aqueous solution 12, and then there is immediately formed a monolayer on the surface.
In the third embodiment, there is used cholesterol oxidase HEPES buffer solution of 5×10^-3 unit/ ml as the cholesterol oxidase aqueous solution 12. […] As the monolayer spread solution 13, there is used a solution consisting of 0.68 mM of DPPC (L-α-dipalmitoylphosphatidylcholine), 0.3 mM of dihydrocholesterol and 0.02 mM of fluorescent dye labeled phospholipid NBD-PE (1-palmitoyl-2-[12-[(7-nitro-2-1,3-benzoxadiazol-4-yl) amino]dodecanoyl]phosphatidylethanolamine) chloroform. Similarly to the first embodiment, there is formed a monolayer on a surface of the cholesterol oxidase aqueous solution 12 by dropping the monolayer spread solution 13 as above mentioned on the surface.
In the fourth embodiment, there is used cholesterol oxidase HEPES buffer solution of 5×10^-3 unit/ml as the cholesterol oxidase aqueous solution 12. […] As the monolayer spread solution 13, there is used a solution consisting of 0.68 mM of DPPE (L-α-tdipalmitoylphosphatidylethanolamine), 0.3 mM of pregnenolone and 0.02 mM of fluorescent dye labeled phospholipid TR-DPPE (N-(texasredsulfonyl)-L-α-dipalmitoylphosphatidylethanolamine) chloroform.

Compound | toxicity to cholesterol oxidase (sterol domain fade-out 30 minutes after monolayer formation) [1] | further results
CCCCCCCCCCCCOS(=O)(=O)[O-].[Na+] [SDS, sodium dodecyl sulfate] |  | toxicity to cholesterol oxidase (sterol domain fade-out 30 minutes after monolayer formation) (0.1 mM test compound, monolayer DPPE 0.68 mM / pregnenolone 0.3 mM / TR-DPPE 0.02 mM): has the toxicity to cholesterol oxidase
[Cl][Hg][Cl] [mercury (II) chloride] |  | toxicity to cholesterol oxidase (sterol domain fade-out 30 minutes after monolayer formation) (1 mM test compound, monolayer DPPC 0.68 mM / dihydrocholesterol 0.3 mM / NBD-PE 0.02 mM): has the toxicity to cholesterol oxidase
[Ca+2].[Cl-].[Cl-] [calcium chloride] | not toxic to cholesterol oxidase | 
[Cl-].[Cl-].[Zn+2] [zinc chloride] | toxic to cholesterol oxidase | 
